Assay results published in patent US20220313698A1, “MODULATORS OF CYSTIC FIBROSIS TRANSMEMBRANE CONDUCTANCE REGULATOR” (Vertex Pharmaceuticals Incorporated, priority 2019, published 2022).
pEC50: −log10 of the molar value.

Molecular target: CFTR-mediated chloride transport (Homo sapiens, UniProt P13569)
Assay: Corrector Assay A - membrane potential dye assay (enteroid cells)
Settings: for Corrector Assay A % activity: % of chloride transport of triple combination control (1 μM (14S)-dispiro macrocycle + 3 μM tezacaftor + 300 nM ivacaftor); for pEC50: read-out: Corrector Assay A EC50, human intestinal enteroid cells, 18-24 h incubation, acute 10 μM forskolin + 300 nM ivacaftor

Row | SMILES | Corrector Assay A % activity | pEC50
1 | CC(C)(C)c1ccc2c(n1)N1C[C@@H](CC[C@@H](c3cccc(C4CNC4)n3)Nc3cccc(n3)S(=O)(=O)NC2=O)CC1(C)C [Compound 151] | ++ (++ is 30-60%) | > 6.00
2 | CC(C)(C)c1ccc2c(n1)N1C[C@@H](CC[C@H](c3cccc(C4CNC4)n3)Nc3cccc(n3)S(=O)(=O)NC2=O)CC1(C)C [Compound 152] | +++ (+++ is >60%) | > 6.00
3 | CC(C)(C)c1ccc2c(n1)N1C[C@@H](CCC(c3ccc(C4CCNCC4)cn3)Nc3cccc(n3)S(=O)(=O)NC2=O)CC1(C)C (stereo partly drawn) [Compound 153] | ++ (++ is 30-60%) | > 6.00
4 | CC(C)(C)c1ccc2c(n1)N1C[C@@H](CCC(c3ccc(C4CCNCC4)cn3)Nc3cccc(n3)S(=O)(=O)NC2=O)CC1(C)C (stereo partly drawn) [Compound 154, (14S)-8-tert-Butyl-12,12-dimethyl-17-[5-(piperidin-4-yl)pyridin-2-yl]-2λ^6-thia-3,9,11,18,23-pentaazatetracyclo[17.3.1.111,14.05,10]tetracosa-1(23),5(10),6,8,19,21-hexaene-2,2,4-trione] | +++ (+++ is >60%) | > 6.00
5 | CC(C)(C)c1ccc2c(n1)N1C[C@@H](CCC(c3ccc(C4CCOCC4)cn3)Nc3cccc(n3)S(=O)(=O)NC2=O)CC1(C)C (stereo partly drawn) [Compound 156] | ++ (++ is 30-60%) | > 6.00
6 | CC(C)CC#Cc1ccc2c(n1)N1C[C@@H](CC[C@H](c3ccccn3)Nc3cccc(n3)S(=O)(=O)NC2=O)CC1(C)C [Compound 157, (14S,17R)-12,12-dimethyl-8-(4-methylpent-1-yn-1-yl)-17-(pyridin-2-yl)-2λ^6-thia-3,9,11,18,23-pentaazatetracyclo[17.3.1.111,14.05,10]tetracosa-1(22),5,7,9,19(23),20-hexaene-2,2,4-trione] | +++ (+++ is >60%) | > 6.00
7 | CC(C)CC#Cc1ccc2c(n1)N1C[C@@H](CC[C@@H](c3ccccn3)Nc3cccc(n3)S(=O)(=O)NC2=O)CC1(C)C [Compound 158] | ++ (++ is 30-60%) | > 6.00
8 | CC1(C)C[C@@H]2CC[C@H](c3ccccn3)Nc3cccc(n3)S(=O)(=O)NC(=O)c3ccc(Cc4ccccc4)nc3N1C2 [Compound 159] | +++ (+++ is >60%) | > 6.00
9 | CC1(C)C[C@@H]2CC[C@@H](c3ccccn3)Nc3cccc(n3)S(=O)(=O)NC(=O)c3ccc(Cc4ccccc4)nc3N1C2 [Compound 160] | ++ (++ is 30-60%) | > 6.00
10 | CC(C)O[C@H]1C[C@@H](Oc2ccc3c(n2)N2C[C@@H](CC[C@H](c4ccccn4)Nc4cccc(n4)S(=O)(=O)NC3=O)CC2(C)C)C1 [Compound 161, (14S,17R)-12,12-dimethyl-17-(pyridin-2-yl)-8-[(1s,3S)-3-(propan-2-yloxy)cyclobutoxy]-2λ^6-thia-3,9,11,18,23-pentaazatetracyclo[17.3.1.111,14.05,10]tetracosa-1(22),5,7,9,19(23),20-hexaene-2,2,4-trione] | +++ (+++ is >60%) | > 6.00
11 | CC(C)O[C@H]1C[C@@H](Oc2ccc3c(n2)N2C[C@@H](CC[C@@H](c4ccccn4)Nc4cccc(n4)S(=O)(=O)NC3=O)CC2(C)C)C1 [Compound 162] | ++ (++ is 30-60%) | > 6.00
12 | CC(C)(C)c1ccc2c(n1)N1C[C@@H](CCC(c3ccc(N4CCCC4)cn3)Nc3cccc(n3)S(=O)(=O)NC2=O)CC1(C)C (stereo partly drawn) [Compound 163] | ++ (++ is 30-60%) | > 6.00
13 | CC(C)(C)c1ccc2c(n1)N1C[C@@H](CCC(c3ccc(N4CCCC4)cn3)Nc3cccc(n3)S(=O)(=O)NC2=O)CC1(C)C (stereo partly drawn) [Compound 164, (14S)-8-tert-butyl-12,12-dimethyl-17-[5-(pyrrolidin-1-yl)pyridin-2-yl]-2λ^6-thia-3,9,11,18,23-pentaazatetracyclo[17.3.1.111,14.05,10]tetracosa-1(23),5(10),6,8,19,21-hexaene-2,2,4-trione] | +++ (+++ is >60%) | > 6.00
14 | CC(C)(C)c1ccc2c(n1)N1C[C@@H](CCC(c3ccc(C4CNC4)cn3)Nc3cccc(n3)S(=O)(=O)NC2=O)CC1(C)C (stereo partly drawn) [Compound 165] | ++ (++ is 30-60%) | > 6.00
15 | CC(C)(C)c1ccc2c(n1)N1C[C@@H](CCC(c3ccc(C4CNC4)cn3)Nc3cccc(n3)S(=O)(=O)NC2=O)CC1(C)C (stereo partly drawn) [Compound 166] | +++ (+++ is >60%) | > 6.00
16 | CC(C)(C)c1ccc2c(n1)N1C[C@@H](CCC(c3ccc(C4=CCOCC4)cn3)Nc3cccc(n3)S(=O)(=O)NC2=O)CC1(C)C (stereo partly drawn) [Compound 167] | ++ (++ is 30-60%) | > 6.00
17 | CC(C)(C)c1ccc2c(n1)N1C[C@@H](CCC(c3ccc(C4=CCOCC4)cn3)Nc3cccc(n3)S(=O)(=O)NC2=O)CC1(C)C (stereo partly drawn) [Compound 168] | +++ (+++ is >60%) | > 6.00
18 | CC(C)(C)c1ccc2c(n1)N1C[C@@H](CCC(c3ccc(C4CC4)cn3)Nc3cccc(n3)S(=O)(=O)NC2=O)CC1(C)C (stereo partly drawn) [Compound 169] | ++ (++ is 30-60%) | > 6.00

Row | SMILES | Corrector Assay A % activity | pEC50
19 | CC(C)(C)c1ccc2c(n1)N1C[C@@H](CCC(c3ccc(C4CC4)cn3)Nc3cccc(n3)S(=O)(=O)NC2=O)CC1(C)C (stereo partly drawn) [Compound 170] | +++ (+++ is >60%) | > 6.00
20 | CC(C)(C)c1ccc2c(n1)N1C[C@@H](CC[C@@H](c3cccc(N4CCCCC4)n3)Nc3cccc(n3)S(=O)(=O)NC2=O)CC1(C)C [Compound 173] | + (+ is <30%) | > 6.00
21 | CC(C)(C)c1ccc2c(n1)N1C[C@@H](CC[C@H](c3cccc(N4CCCCC4)n3)Nc3cccc(n3)S(=O)(=O)NC2=O)CC1(C)C [Compound 174] | +++ (+++ is >60%) | > 6.00
22 | CC(C)(C)c1ccc2c(n1)N1C[C@@H](CCC(c3ccc(N4CCC4)cn3)Nc3cccc(n3)S(=O)(=O)NC2=O)CC1(C)C (stereo partly drawn) [Compound 175] | +++ (+++ is >60%) | > 6.00
23 | CC(C)(C)C#Cc1ccc2c(n1)N1C[C@@H](CC[C@@H](c3ccccn3)Nc3cccc(n3)S(=O)(=O)NC2=O)CC1(C)C [Compound 176] | ++ (++ is 30-60%) | > 6.00
24 | CC(C)(C)C#Cc1ccc2c(n1)N1C[C@@H](CC[C@H](c3ccccn3)Nc3cccc(n3)S(=O)(=O)NC2=O)CC1(C)C [Compound 177] | +++ (+++ is >60%) | > 6.00
25 | CC(C)Cc1ccc(C2CC[C@@H]3CN(c4nc(C(C)(C)C)ccc4C(=O)NS(=O)(=O)c4cccc(n4)N2)C(C)(C)C3)nc1 (stereo partly drawn) [Compound 180] | +++ (+++ is >60%) | > 6.00
26 | CC(C)Cc1ccc(C2CC[C@@H]3CN(c4nc(C(C)(C)C)ccc4C(=O)NS(=O)(=O)c4cccc(n4)N2)C(C)(C)C3)nc1 (stereo partly drawn) [Compound 181, (14S)-8-tert-butyl-12,12-dimethyl-17-[5-(2-methylpropyl)pyridin-2-yl]-2λ^6-thia-3,9,11,18,23-pentaazatetracyclo[17.3.1.111,14.05,10]tetracosa-1(23),5(10),6,8,19,21-hexaene-2,2,4-trione] | ++ (++ is 30-60%) | > 6.00
27 | CC(C)=Cc1ccc(C2CC[C@@H]3CN(c4nc(C(C)(C)C)ccc4C(=O)NS(=O)(=O)c4cccc(n4)N2)C(C)(C)C3)nc1 (stereo partly drawn) [Compound 182] | +++ (+++ is >60%) | > 6.00
28 | CC(C)=Cc1ccc(C2CC[C@@H]3CN(c4nc(C(C)(C)C)ccc4C(=O)NS(=O)(=O)c4cccc(n4)N2)C(C)(C)C3)nc1 (stereo partly drawn) [Compound 183, (14S)-8-tert-Butyl-12,12-dimethyl-17-[5-(2-methylprop-1-en-1-yl)pyridin-2-yl]-2λ^6-thia-3,9,11,18,23-pentaazatetracyclo[17.3.1.111,14.05,10]tetracosa-1(23),5(10),6,8,19,21-hexaene-2,2,4-trione] | ++ (++ is 30-60%) | > 6.00
29 | CC(C)(C)c1ccc2c(n1)N1C[C@@H](CCC(c3ccc(N4CCCCC4)cn3)Nc3cccc(n3)S(=O)(=O)NC2=O)CC1(C)C (stereo partly drawn) [Compound 184] | +++ (+++ is >60%) | > 6.00
30 | CC(C)(C)c1ccc2c(n1)N1C[C@@H](CCC(c3ccc(N4CCCCC4)cn3)Nc3cccc(n3)S(=O)(=O)NC2=O)CC1(C)C (stereo partly drawn) [Compound 185] | ++ (++ is 30-60%) | > 6.00
31 | CN(C)CCNc1cccc([C@@H]2CC[C@@H]3CN(c4nc(C(C)(C)C)ccc4C(=O)NS(=O)(=O)c4cccc(n4)N2)C(C)(C)C3)n1 [Compound 188] | ++ (++ is 30-60%) | > 6.00
32 | CN(C)CCNc1cccc([C@H]2CC[C@@H]3CN(c4nc(C(C)(C)C)ccc4C(=O)NS(=O)(=O)c4cccc(n4)N2)C(C)(C)C3)n1 [Compound 189] | ++ (++ is 30-60%) | > 6.00
33 | CC(C)(C)c1ccc2c(n1)N1C[C@@H](CC[C@@H](c3cccc(N4CCOCC4)n3)Nc3cccc(n3)S(=O)(=O)NC2=O)CC1(C)C [Compound 190] | ++ (++ is 30-60%) | > 6.00
34 | CC(C)(C)c1ccc2c(n1)N1C[C@@H](CC[C@H](c3cccc(N4CCOCC4)n3)Nc3cccc(n3)S(=O)(=O)NC2=O)CC1(C)C [Compound 191] | +++ (+++ is >60%) | > 6.00
35 | CC1(C)C[C@@H]2CC[C@@H](c3ccccn3)Nc3cccc(n3)S(=O)(=O)NC(=O)c3ccc(C#N)nc3N1C2 [Compound 192] | + (+ is <30%) | 5.52 to 6.00
36 | CC1(C)C[C@@H]2CC[C@H](c3ccccn3)Nc3cccc(n3)S(=O)(=O)NC(=O)c3ccc(C#N)nc3N1C2 [Compound 193, (14S,17R)-12,12-dimethyl-2,2,4-trioxo-17-(pyridin-2-yl)-2λ^6-thia-3,9,11,18,23-pentaazatetracyclo[17.3.1.111,14.05,10]tetracosa-1(22),5,7,9,19(23),20-hexaene-8-carbonitrile] | +++ (+++ is >60%) | < 5.52
